Holding throughout (experiment): Recombinant HDAC activity assay
Common to all, as to assay type: biochemical

The target of assay [1] is T1, recombinant HDAC8 (Homo sapiens, UniProt Q9BY41).
T1 sequence (Q9BY41 1-377): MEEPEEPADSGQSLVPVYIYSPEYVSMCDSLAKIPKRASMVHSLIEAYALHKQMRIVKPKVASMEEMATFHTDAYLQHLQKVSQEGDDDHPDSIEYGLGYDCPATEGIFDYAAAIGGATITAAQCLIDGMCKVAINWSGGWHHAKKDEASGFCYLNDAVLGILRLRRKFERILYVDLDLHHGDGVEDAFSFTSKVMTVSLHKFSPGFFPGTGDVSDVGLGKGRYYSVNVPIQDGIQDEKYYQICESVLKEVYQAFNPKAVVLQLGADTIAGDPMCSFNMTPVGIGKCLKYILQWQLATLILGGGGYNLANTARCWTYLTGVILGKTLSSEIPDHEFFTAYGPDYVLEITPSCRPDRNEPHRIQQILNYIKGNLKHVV
Conditions: 2 h, read-out: % HDAC activity, Class I HDACs, 8.

The target of assay [2] is recombinant HDAC4 (Homo sapiens, UniProt P56524). The conditions noted are these: 2 h, read-out: % HDAC activity, Class IIa HDACs, 4.
Sequence of recombinant HDAC4 (P56524 whole entry): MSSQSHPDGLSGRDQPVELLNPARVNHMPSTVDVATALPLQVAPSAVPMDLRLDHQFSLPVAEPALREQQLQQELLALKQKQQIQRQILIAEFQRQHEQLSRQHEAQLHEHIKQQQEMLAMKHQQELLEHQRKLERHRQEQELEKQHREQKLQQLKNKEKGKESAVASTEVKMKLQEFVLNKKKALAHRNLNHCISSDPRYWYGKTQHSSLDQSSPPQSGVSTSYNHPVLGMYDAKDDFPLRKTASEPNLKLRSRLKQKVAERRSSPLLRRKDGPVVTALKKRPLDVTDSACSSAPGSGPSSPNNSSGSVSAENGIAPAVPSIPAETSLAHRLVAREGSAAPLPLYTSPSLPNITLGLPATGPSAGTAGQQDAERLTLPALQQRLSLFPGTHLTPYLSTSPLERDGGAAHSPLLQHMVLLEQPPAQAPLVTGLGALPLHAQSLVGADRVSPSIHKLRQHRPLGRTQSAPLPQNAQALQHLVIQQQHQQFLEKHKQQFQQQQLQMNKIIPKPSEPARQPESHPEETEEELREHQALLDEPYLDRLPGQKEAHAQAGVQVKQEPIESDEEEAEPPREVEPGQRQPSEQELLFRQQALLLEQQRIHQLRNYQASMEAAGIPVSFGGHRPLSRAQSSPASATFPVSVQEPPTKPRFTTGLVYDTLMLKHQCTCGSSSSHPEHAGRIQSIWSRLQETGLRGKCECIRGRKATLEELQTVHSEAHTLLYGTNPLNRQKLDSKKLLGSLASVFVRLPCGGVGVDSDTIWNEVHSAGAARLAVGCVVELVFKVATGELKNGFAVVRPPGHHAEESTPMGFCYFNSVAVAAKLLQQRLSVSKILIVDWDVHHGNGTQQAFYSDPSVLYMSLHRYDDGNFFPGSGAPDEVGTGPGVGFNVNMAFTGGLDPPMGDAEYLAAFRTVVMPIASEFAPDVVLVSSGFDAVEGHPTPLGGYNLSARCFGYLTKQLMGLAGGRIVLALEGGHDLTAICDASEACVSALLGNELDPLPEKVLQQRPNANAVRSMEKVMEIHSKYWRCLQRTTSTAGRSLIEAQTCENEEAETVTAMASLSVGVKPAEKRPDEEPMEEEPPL
The target in assay [3] is recombinant HDAC9 (Homo sapiens, UniProt Q9UKV0). The conditions noted are these: 2 h, read-out: % HDAC activity, Class IIa HDACs, 9.
Sequence of recombinant HDAC9 (Q9UKV0 whole entry): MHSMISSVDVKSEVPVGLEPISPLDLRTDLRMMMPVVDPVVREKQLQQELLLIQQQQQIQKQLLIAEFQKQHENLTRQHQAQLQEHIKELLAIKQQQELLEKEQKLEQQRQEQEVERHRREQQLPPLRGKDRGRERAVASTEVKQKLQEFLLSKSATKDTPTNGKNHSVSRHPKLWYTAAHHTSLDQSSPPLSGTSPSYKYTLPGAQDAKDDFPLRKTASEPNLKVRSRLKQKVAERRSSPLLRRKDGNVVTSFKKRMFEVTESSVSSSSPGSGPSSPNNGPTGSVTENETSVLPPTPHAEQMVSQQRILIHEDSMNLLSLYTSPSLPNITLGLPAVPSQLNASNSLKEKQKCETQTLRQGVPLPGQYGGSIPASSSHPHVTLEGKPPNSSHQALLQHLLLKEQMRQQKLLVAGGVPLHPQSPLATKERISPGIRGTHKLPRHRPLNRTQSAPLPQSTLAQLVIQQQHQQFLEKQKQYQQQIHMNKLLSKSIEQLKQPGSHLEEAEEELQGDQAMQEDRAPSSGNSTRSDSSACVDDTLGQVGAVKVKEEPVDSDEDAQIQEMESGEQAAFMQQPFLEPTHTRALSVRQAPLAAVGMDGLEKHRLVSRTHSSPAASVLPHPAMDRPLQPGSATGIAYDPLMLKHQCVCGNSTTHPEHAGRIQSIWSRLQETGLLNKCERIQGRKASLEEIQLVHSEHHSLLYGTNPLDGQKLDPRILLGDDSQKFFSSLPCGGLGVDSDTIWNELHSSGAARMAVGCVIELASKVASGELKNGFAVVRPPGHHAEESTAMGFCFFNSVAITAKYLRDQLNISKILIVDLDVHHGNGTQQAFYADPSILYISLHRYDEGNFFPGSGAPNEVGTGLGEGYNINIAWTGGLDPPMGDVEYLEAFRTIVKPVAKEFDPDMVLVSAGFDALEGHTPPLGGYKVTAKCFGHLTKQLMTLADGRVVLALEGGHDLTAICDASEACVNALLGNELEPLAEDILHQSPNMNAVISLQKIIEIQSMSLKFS
The target of assay [4] is T2, recombinant HDAC10 (Homo sapiens, UniProt Q969S8).
T2 sequence (Q969S8 1-669): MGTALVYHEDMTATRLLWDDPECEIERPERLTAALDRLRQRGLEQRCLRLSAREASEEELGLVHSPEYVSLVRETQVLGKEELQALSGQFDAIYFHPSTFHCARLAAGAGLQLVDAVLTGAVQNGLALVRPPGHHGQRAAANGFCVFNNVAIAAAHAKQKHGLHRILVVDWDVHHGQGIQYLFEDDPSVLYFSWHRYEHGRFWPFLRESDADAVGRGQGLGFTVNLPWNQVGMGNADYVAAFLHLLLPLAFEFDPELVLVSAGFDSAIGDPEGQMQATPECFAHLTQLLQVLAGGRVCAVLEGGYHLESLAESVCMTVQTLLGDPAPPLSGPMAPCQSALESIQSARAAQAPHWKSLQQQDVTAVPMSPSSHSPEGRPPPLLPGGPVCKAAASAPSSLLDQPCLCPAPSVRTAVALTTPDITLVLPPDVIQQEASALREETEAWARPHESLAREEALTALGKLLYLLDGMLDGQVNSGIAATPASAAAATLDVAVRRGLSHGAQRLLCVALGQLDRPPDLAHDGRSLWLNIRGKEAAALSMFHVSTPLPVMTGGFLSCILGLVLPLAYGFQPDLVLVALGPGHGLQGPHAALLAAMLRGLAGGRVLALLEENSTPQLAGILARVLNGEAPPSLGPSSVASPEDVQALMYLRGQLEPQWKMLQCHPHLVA
The conditions noted are these: 2 h, read-out: % HDAC activity, Class IIb HDACs, 10.

For the compound `Cc1cc(O)c2c(c1)C(=O)c1cc(O)cc(O)c1C2=O` [Emodin], the remaining activity at 50 µM in assay [1] was determined as 32.3%; in assay [2] it was 92.8%; in assay [3], 34.7%; in assay [4], 35.8%.

The values above are taken from PMC5508980 (Molecular nutrition & food research, 2017).
